How the values were obtained:
fibroblast monolayers [1] = assay: Cellular cholesterol mass determined enzymatically; assay type: cell-based, human; details: 2 mM NEM, 120 min, 37° C.; control 4.1 ± 0.3
Method: In most experiments, LDL was labeled directly with ^3 H-FC by exchange from albumin-agarose covalent complex essentially as previously described (Miida et al., Biochemistry, 29: 10469-10474 (1990)). Briefly, recrystallized human serum albumin (Sigma Chemical Co, St. Louis, Mo., USA) was covalently linked to CNBr-activated Sepharose 6B (Pharmacia). 1,2-^3 H-FC in ethanol (0.1-1.0 mCi, 10-20 μl/ml gel suspension) was added and the mixture incubated with gentle stirring for 60 mm at 37° C. The labeled suspension was centrifuged (500× g, 1 min) and the gel equilibrated (60 min, 37° C.) with unlabeled LDL prepared as described above. Finally the gel was removed by centrifugation, leaving labeled LDL in the supernatant. LDL total and FC mass was determined fluorimetrically with cholesterol oxidase (Heider & Boyett, J. Lipid Res. 19: 514-518 (1978)) in the presence or absence of cholesterol esterase. EC mass was obtained by difference. LDL ^3 H-radioactivity was measured by liquid scintillation spectrometry. FC specific activity in these experiments was 3×10^4 to 5×10^5 cpm μg^-1.
The FC and EC mass of cell monolayers was determined before and after incubation with lipoprotein as described above. Portions of the chloroform phase were analyzed for total and free cholesterol. […]
^a Increase in cellular cholesterol mass determined enzymatically ove

fibroblast monolayers [2] = assay: D2O-Ficoll density gradient fractionation of ^3 H-FC labeled fibroblasts; assay type: cell-based, human; details: clathrin fraction d 1.12 g ml^-1; NEM 2 mM
Method: Early endosomal vesicles were labeled with LDL-derived ^3 H-FC by a modification of procedures described by Woodman & Warren (1991) J. Cell Biol., 112:1133-1141. Fibroblast monolayers in 10 cm dishes were washed in ice-cold PBS. The cells were labeled by incubation (2 h, 4° C.) with ^3 H-FC LDL. The monolayers were washed in PBS and brought to 31° C. for 0-15 min. The cells were then quickly chilled on ice, and cold unlabeled LDL was added (15 min, 4° C.) to displace any remaining surface-bound labeled LDL and all subsequent steps were carried out at 0-4° C.
Cells from three 10 cm dishes were used for each gradient. Monolayers were washed with 140 mM sucrose, 0.5 mM MgCl2, 1 mM EGTA, 20 mM 2-[N-morpholino]ethanesulfonic acid (MES), 70 mM potassium acetate, pH 6.6 (`vesicle buffer`) (Woodman & Warren, supra.). The cells were scraped from the dishes. Dithiothreitol (1 mm) and protease inhibitors (PMSF, 200 μg ml^-1; benzamidine 0.5 mM; soybean trypsin inhibitor 10 μg ml^-1; leupeptin 1 μg ml^-1) were added. The cells were broken with a Dounce homogenizer (15 strokes) and the homogenate centrifuged at 500× g for 5 min. Ribonuclease A (50 μg ml^-1) was added. After 30 min a second centrifugation was carried out (7000× g, 30 min). Supernatant (~2 ml) was layered on a 10 ml continuous gradient of 2% Ficoll-9% D2 O to 20% Ficoll-90% D2 O in vesicle buffer containing 1 mM dithiothreitol. Centrifugation in a Beckman SW41 rotor was carried out at 80,000× g for 16 h. Fractions (~0.6 ml) were collected dropwise and the distribution of FC label determined. Because of slight variation in fraction size between gradients, data were normalized to 20 fractions for comparison between experiments. Solution density was determined gravimetrically using 100 μl portions of each fraction. The density of a given fraction was reproducible ±0.5% between experiments.
Fibroblast monolayers were incubated with ^3 H-FC LDL for 30 min at 31° C. to predominantly label the intermediate density vesicle fraction. Cell surface LDL was removed as described above. […]

fibroblast monolayers [3] = assay: Cholesterol efflux from ^3 H-cholesterol labeled fibroblasts to plasma; assay type: cell-based, human
Method: Fibroblast monolayers were equilibrated with ^3 H-FC-labeled native plasma or with isolated ^3 H-labeled LDL, as specified for each experiment. Following incubation, the dishes were washed with albumin-complete PBS and then (×4) with complete PBS. They were then incubated for 3 min with unlabeled plasma or lipoprotein fractions and the rate of appearance of radioactivity in the medium determined. Samples of medium (100 μl) were immediately chilled in ice water and centrifuged (10 min, 2000× g) at 0-2° C. ^3 H-cholesterol radioactivity in the supernatant was either assayed directly, or fractionated by agarose gel electrophoresis. FC efflux was linear as previously reported (Kawano et al., Biochemistry, 32: 5025-5028 (1993)).
For electrophoresis, 20 μl portions of labeled medium were added to strips of 0.75% w/v agarose in 0.025M barbital buffer (pH 8.6) and separated as previously described (Fielding et al., Biochemistry, 30: 8551-8557 (1991)). 2.5 mm gel fractions were then collected, and radioactivity measured. The location of major lipoprotein classes was determined from strips run simultaneously with whole native plasma equilibrated (60 min, 37° C.) with ^3 H-FC.
^c Percent loss of label from cells prelabeled (10 min, 37° C.

vesicular transport = details: Tageya et al.; cited from earlier work
fibroblast monolayers [4] = assay: Transfer of intracellular ^3 H-FC to the cell surface (cholesterol oxidase accessibility); assay type: cell-based, human
Method: This assay utilized the finding (see Example 1) that only FC in the caveolar fraction of the plasma membrane fraction was modified by cholesterol oxidase in unfixed fibroblast monolayers.
The rate at which intracellular LDL-derived ^3 H-FC became accessible at the cell surface was measured as follows. Cell monolayers were labeled with ^3 H-FC LDL under the conditions shown for each experiment. Unbound and adsorbed LDL were removed as described above. In some experiments metabolic inhibitors of different transport steps were then added for 30 min at 15° C. […] Cholesterol oxidase (Boehringer-Manheim, Indianapolis, Ind., USA) was added in PBS to a final concentration of 1 U ml^-1. Incubation was for 4 h at 0° C. The cells were washed with ice-cold PBS, and extracted with 0. 1N NAOH. Cell total lipid was extracted with chloroform-methanol (1:1 v/v). […] .
Fibroblast monolayers were prelabeled with FC-labeled LDL for 2 min at 31° C. Medium and surface-bound labeled LDL were removed as described above. The cells were incubated with inhibitors of intracellular transport for 30 min at 15° C. Movement of FC label to the cell surface remained negligible (FIG. 11).
^a Relative to rate in the absence of inhibitor. Values are expressed

CCN1C(=O)C=CC1=O [N-ethylmaleimide]
Δ total cholesterol (fibroblast monolayers [1]): 0.4 ± 0.2 μg dish^-1 | FC label in density gradient (fibroblast monolayers [2]): no peak of FC label was present with clathrin at d 1.12 g ml^-1 | initial rate of efflux of FC from prelabeled cells to plasma (fibroblast monolayers [3]): increased several-fold | % efflux to plasma (3 min) (fibroblast monolayers [3]; 2 mM NEM, 80% v/v plasma-PBS, 37° C., control 13.3 ± 0.1): 32.4 ± 0.2% | concentration for maximal inhibition in assays of vesicular transport in vitro (vesicular transport): 1 mM | transport of intracellular ^3 H-FC to the cell surface/caveolae (fibroblast monolayers [4]): inhibited the return of FC to the cell surface, but less effectively than did nocodazole | % transfer of intracellular ^3 H-FC to the cell surface, relative to rate in absence of inhibitor (fibroblast monolayers [4]; NEM 2 mM, KNO3 50 mM, nocodazole, brefeldin A, vinblastine 40 μM, pulse labeled 2 min 31° C., then 30 min 31° C.): 50 ± 3%

Source: US5922554A, “Inhibition of cellular uptake of cholesterol” (The Regents of the University of California, priority 1996, dated 1999)
